In PubChem BioAssay (NCI):
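Cultured in 96-well plates, cells were exposed to test compound for 48 hours across five concentrations. GI50 = concentration required for 50% inhibition of growth. TGI: concentration producing complete growth inhibition.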

Legend:
Experiment in all cases: NCI-60 cell line screen, 48 h
[1] = test system: UACC-257 melanoma
[2] = test system: HT29 colon
[3] = test system: SNB-19 CNS
[4] = test system: MDA-MB-231 breast
[5] = test system: U251 CNS
[6] = test system: OVCAR-5 ovarian
[7] = test system: SN12C renal
[8] = test system: HS 578T breast
[9] = test system: 786-0 renal
[10] = test system: NCI-H522 lung
[11] = test system: TK-10 renal
[12] = test system: MCF7 breast
[13] = test system: MOLT-4 leukemia
[14] = test system: SF-539 CNS
[15] = test system: SF-295 CNS
[16] = test system: HCC-2998 colon
[17] = test system: IGROV1 ovarian
[18] = test system: OVCAR-3 ovarian
[19] = test system: SK-MEL-28 melanoma
[20] = test system: CCRF-CEM leukemia
[21] = test system: UO-31 renal
[22] = test system: DU-145 prostate
[23] = test system: CAKI-1 renal
[24] = test system: RPMI-8226 leukemia
[25] = test system: OVCAR-4 ovarian
[26] = test system: NCI/ADR-RES ovarian
[27] = test system: HCT-15 colon
[28] = test system: PC-3 prostate
[29] = test system: NCI-H23 lung
[30] = test system: HOP-92 NSCLC
[31] = test system: SK-MEL-5 melanoma
[32] = test system: RXF 393 renal
[33] = test system: NCI-H460 lung
[34] = test system: A549 NSCLC
[35] = test system: LOX IMVI melanoma
[36] = test system: COLO 205 colon
[37] = test system: HOP-62 NSCLC
[38] = test system: OVCAR-8 ovarian
[39] = test system: A498 renal
[40] = test system: SR leukemia
[41] = test system: KM12 colon
[42] = test system: T-47D breast
[43] = test system: MALME-3M melanoma
[44] = test system: EKVX NSCLC
[45] = test system: BT-549 breast
[46] = test system: MDA-MB-435
[47] = test system: SW-620 colon
[48] = test system: SK-MEL-2 melanoma
[49] = test system: SF-268 CNS
[50] = test system: NCI-H226 lung
[51] = test system: UACC-62 melanoma
[52] = test system: HCT-116 colon
[53] = test system: SK-OV-3 ovarian
[54] = test system: SNB-75 CNS
[55] = test system: K-562 leukemia
[56] = test system: ACHN renal
[57] = test system: M14 melanoma

Structure (SMILES): O=C(Nc1ccc(Cl)cc1)c1cc(-c2ccc(F)cc2)c2sc(=O)[nH]c2n1
- GI50 [1]: 1.11 µM
- TGI [1]: 5.07 µM
- GI50 [2]: 3.02 µM
- TGI [2]: 11.4 µM
- GI50 [3]: 2.73 µM
- TGI [3]: 16.2 µM
- GI50 [4]: 1.77 µM
- TGI [4]: 4.78 µM
- GI50 [5]: 1.5 µM
- TGI [5]: 4.71 µM
- GI50 [6]: 2.34 µM
- TGI [6]: 7.9 µM
- GI50 [7]: 1.99 µM
- TGI [7]: 7.93 µM
- GI50 [8]: 2.13 µM
- TGI [8]: 13.1 µM
- GI50 [9]: 1.35 µM
- TGI [9]: 2.85 µM
- GI50 [10]: 0.478 µM
- TGI [10]: 5.42 µM
- GI50 [11]: 1.88 µM
- TGI [11]: 4.94 µM
- GI50 [12]: 1.31 µM
- TGI [12]: 11.3 µM
- GI50 [13]: 0.721 µM
- TGI [13]: 4.02 µM
- GI50 [14]: 2.07 µM
- TGI [14]: 5.71 µM
- GI50 [15]: 1.1 µM
- TGI [15]: 3.8 µM
- GI50 [16]: 2.25 µM
- TGI [16]: 10.9 µM
- GI50 [17]: 1.78 µM
- TGI [17]: 7.06 µM
- GI50 [18]: 0.944 µM
- TGI [18]: 11.4 µM
- GI50 [19]: 1.39 µM
- TGI [19]: 10.1 µM
- GI50 [20]: 0.657 µM
- TGI [20]: 9.9 µM
- GI50 [21]: 1.61 µM
- TGI [21]: 3.89 µM
- GI50 [22]: 3.7 µM
- TGI [22]: 28.9 µM
- GI50 [23]: 2.15 µM
- TGI [23]: 4.99 µM
- GI50 [24]: 0.391 µM
- TGI [24]: 2.22 µM
- GI50 [25]: 1.99 µM
- TGI [25]: 9.12 µM
- GI50 [26]: 2.32 µM
- TGI [26]: 10.9 µM
- GI50 [27]: 1.73 µM
- TGI [27]: 10.1 µM
- GI50 [28]: 0.65 µM
- TGI [28]: 13.3 µM
- GI50 [29]: 1.19 µM
- TGI [29]: 5.79 µM
- GI50 [30]: 0.204 µM
- TGI [30]: 0.94 µM
- GI50 [31]: 0.493 µM
- TGI [31]: 2.13 µM
- GI50 [32]: 1.7 µM
- TGI [32]: 3.99 µM
- GI50 [33]: 1.73 µM
- TGI [33]: 4.29 µM
- GI50 [34]: 2.45 µM
- TGI [34]: 10.1 µM
- GI50 [35]: 1.68 µM
- TGI [35]: 4.43 µM
- GI50 [36]: 1.76 µM
- TGI [36]: 3.82 µM
- GI50 [37]: 2.04 µM
- TGI [37]: 5.69 µM
- GI50 [38]: 1.72 µM
- TGI [38]: 4.93 µM
- GI50 [39]: 0.465 µM
- TGI [39]: 3.35 µM
- GI50 [40]: 0.672 µM
- TGI [40]: 10.5 µM
- GI50 [41]: 1.81 µM
- TGI [41]: 6.04 µM
- GI50 [42]: 0.739 µM
- TGI [42]: 5.25 µM
- GI50 [43]: 1.7 µM
- TGI [43]: 6.8 µM
- GI50 [44]: 1.64 µM
- TGI [44]: 6.11 µM
- GI50 [45]: 1.73 µM
- TGI [45]: 6.88 µM
- GI50 [46]: 3.01 µM
- TGI [46]: 17.4 µM
- GI50 [47]: 3.01 µM
- TGI [47]: 16.2 µM
- GI50 [48]: 1.59 µM
- TGI [48]: 3.93 µM
- GI50 [49]: 2.59 µM
- TGI [49]: 17.2 µM
- GI50 [50]: 1.11 µM
- TGI [50]: 3.93 µM
- GI50 [51]: 0.366 µM
- TGI [51]: 2.32 µM
- GI50 [52]: 1.43 µM
- TGI [52]: 2.96 µM
- GI50 [53]: 1.57 µM
- TGI [53]: 5.41 µM
- GI50 [54]: 2.02 µM
- TGI [54]: 5.33 µM
- GI50 [55]: 0.581 µM
- TGI [55]: 10.9 µM
- GI50 [56]: 1.69 µM
- TGI [56]: 4.02 µM
- GI50 [57]: 1.88 µM
- TGI [57]: 5.13 µM
